From ChEMBL document CHEMBL5620372, “Pharmacological inhibition of ferroptosis as a therapeutic target for sepsis-associated organ damage” (Eur J Med Chem, 2023)
Blank lines part the entries; values can stand above or below the molecule they belong to.

Columns and labels:
[1] = Drug recovery in rat feces at 10 mg/kg, IG measured after 36 hrs; type: ADME, organism-based; conditions: faeces, po, read-out: Drug recovery
[2] = Drug recovery in rat urine at 10 mg/kg, IG measured after 36 hrs; type: ADME, organism-based; conditions: po, read-out: Drug recovery
[3] = Oral bioavailability in human; type: ADME, organism-based; conditions: in vivo
[4] = Half life in human plasma; type: ADME, cell-free
[5] = Cmax in human plasma; type: ADME, cell-free
[6] = Oral bioavailability in human at 2 mg/kg; type: ADME, organism-based; conditions: in vivo

dose excreted at 36 h [1]: 0.07%
dose excreted at 36 h [2]: 0.15%
Structure (SMILES): Oc1ccc(/C=C/c2cc(O)cc(O)c2)cc1 [RESVERATROL]

bioavailability [3]: 86%
half-life [4]: 12 min
Structure (SMILES): CC(=O)Nc1ccc(O)cc1 [ACETAMINOPHEN]

Cmax [5]: 140 ng/mL
bioavailability [6]: 7%
Structure (SMILES): O=c1c(-c2ccc(O)cc2)coc2c([C@@H]3O[C@H](CO)[C@@H](O)[C@H](O)[C@H]3O)c(O)ccc12 [PUERARIN]
